Experimental findings from US20240092784A1, “CONDENSED HETEROCYCLIC COMPOUND” (NISSAN CHEMICAL CORPORATION, priority 2020, published 2024) are described below.

Each structure is given as a SMILES string.

For assay [1], the target named is T1, human SPR (Homo sapiens (Human), UniProt P35270). As to the kind of experiment: Evaluation Example 2: Measurement of human SPR inhibitory activity (seven concentrations, sepiapterin absorbance at 420 nm). The assay is classed as biochemical. The settings on record: Evaluation Example 2, seven concentrations 0.14 nM to 100 nM, 240 minutes at room temperature, read-out: IC50. Put shortly: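 His-tagged full-length human SPR (1-261) was expressed in E. coli and the tag removed. Enzyme at 150 ng/mL in 100 mM Tris-HCl pH 7.5/0.01% BSA was mixed with compound (0.14–100 nM, seven points), 120 μM sepiapterin and 160 μM NADPH, both as added-solution concentrations. After 240 min at room temperature, remaining sepiapterin was read at 420 nm to give percent inhibition.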
T1 sequence (P35270 whole entry): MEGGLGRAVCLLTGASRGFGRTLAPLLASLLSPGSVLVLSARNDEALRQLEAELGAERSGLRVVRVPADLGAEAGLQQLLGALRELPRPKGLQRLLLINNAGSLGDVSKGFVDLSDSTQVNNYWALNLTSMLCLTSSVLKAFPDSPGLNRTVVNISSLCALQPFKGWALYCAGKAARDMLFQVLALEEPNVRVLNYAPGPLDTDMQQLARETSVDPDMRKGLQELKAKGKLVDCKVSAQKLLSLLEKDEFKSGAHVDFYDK

Assay [2] has as its target T1, human SPR. As to the kind of experiment: Evaluation Example 1: Measurement of human SPR inhibitory activity (sepiapterin absorbance at 420 nm). The assay is classed as biochemical. The settings on record: 240 minutes at room temperature. The procedure:
Human SPR was prepared as described below. The full-length human SPR (1-261) cDNA was purchased from Eurofins Genomics as an artificially synthesized plasmid containing a DNA sequence optimized for the E. coli expression system so that the sequence of the expressed protein after transcription and translation matches the sequence described in UniprotKB (P35270).
Linearized insert and vector were prepared by PCR using primers designed for amplification of human SPR cDNA and primers designed to contain the thrombin recognition sequence of pET28a (Novagen) and a polyhistidine tag. Cloning was performed using In-Fusion (registered trademark) HD Cloning Kit (TaKaRa) to thereby construct a human SPR expression plasmid. The resultant human SPR expression plasmid was transformed into BL21 (DE3) competent cells (INVITROGEN).
The cells were inoculated into LB medium (1% triptone, 0.5% yeast extract, 1% sodium chloride) containing […] of kanamycin, and then precultured at 37° C. overnight. The precultured cells were inoculated into TB medium (1.2% triptone, 2.4% yeast extract, 9.4% dipotassium hydrogen phosphate, 2.2% potassium dihydrogen phosphate, 0.8% glycerin) containing […] of kanamycin, and the cultured at 37° C., to thereby induce SPR expression with 0.5 mM IPTG for four hours. After the induction, the cells were collected by centrifugation at 6,000 G for 30 minutes and washed with PBS, and the washing was discarded. The washed cells were suspended in buffer solution A (20 mM MES, pH 6.5, 100 mM sodium chloride, 1 mM DTT, 5 mM imidazole). Subsequently, the cell suspension was subjected to ultrasonic treatment to thereby homogenize the cells. The cell homogenate was clarified by centrifugation at 30,000 G for 60 minutes and then filtered with a […]. The filtrate was allowed to pass through HisTrapFF 5 mL column (GE Healthcare). The resin was washed with buffer A, and then gradient elution was performed with buffer B (20 mM MES, pH 6.5, 100 mM sodium chloride, 1 mM DTT, 500 mM imidazole). Thrombin was added to a fraction containing the SPR protein, and the mixture was dialyzed in buffer A overnight, to thereby cleave the tag. After removal of the thrombin by with Benzamidine Sepharose 4 FF (GE Healthcare), the resultant product was allowed to pass through the HisTrapFF 5 mL column, to thereby remove the tag, followed by concentration with Amicon Ultra 10,000 NMWL (Merck Millipore). The concentrate was purified by gel filtration using HiLoad 16/60 Superdex 75 pg (GE Healthcare) equilibrated with buffer C (20 mM MES, pH 6.5, 100 mM sodium chloride, 1 mM DTT). The fraction containing SPR protein was concentrated and then cryopreserved at −80° C.
Human SPR inhibitory activity was measured by using a 384-well low adsorption clear plate (Greiner) with buffer D containing 100 mM Tris-HCl (pH 7.5) (Thermo Fisher Scientific) and 0.01% bovine serum albumin (Sigma). A compound was diluted with DMSO to a concentration of 1 mM, and a 1 μL aliquot of the preparation was diluted with 250 μL of buffer D. The thus-diluted compound was dispensed into the 384-well plate at […]. Thereafter, human SPR was diluted with buffer D to 200 ng/mL and then dispensed into the 384-well plate at 20 μL/well. Subsequently, 40 μL of ultrapure water containing 120 μM Sepiapterin (WuXi AppTec) and 120 μM NADPH (Nacalai) was added to each well, and mixed with a vortex mixer, to thereby initiate the reaction. The reaction mixture was incubated at room temperature for 240 minutes, and the reaction was terminated by addition of 10 μL of ultrapure water containing 2% formic acid (Nacalai). In order to determine the amount of sepiapterin after termination of the reaction, the absorbance at 420 nm was measured by applying the 384-well plate to EnSpire multimode plate reader (Perkin Elmer). The percent inhibition (%) of human SPR by the test compound was calculated by the following formula. […]

In the case of `CC(C)Cn1c(=O)c(C(=O)NC2CC2)c(O)n2nc(Nc3cnccn3)cc12` [Synthesis Example 23, N-Cyclopropyl-7-hydroxy-4-isobutyl-5-oxo-2-(pyrazin-2-ylamino)-4,5-dihydropyrazolo[1,5-a]pyrimidine-6-carboxamide], the IC50 (as a rule, the concentration that inhibits the measured activity by half) on human SPR [1] is 1.91 nM; against human SPR [2], below 1000 nM. Take `CC1(Cn2c(=O)c(C(=O)NC3CC3)c(O)n3nc(Br)cc23)CCOCC1` [Synthesis Example 27, 2-Bromo-N-cyclopropyl-7-hydroxy-4-((4-methyltetrahydro-2H-pyran-4-yl)methyl)-5-oxo-4,5-dihydropyrazolo[1,5-a]pyrimidine-6-carboxamide]: the IC50 against human SPR [2] was below 1000 nM. Same read-out and setting: the value for `O=C(NC1CC1)c1c(O)n2nc(C3CC3)cc2n(CC2CCOCC2)c1=O` [Synthesis Example 135, N,2-Dicyclopropyl-7-hydroxy-5-oxo-4-((tetrahydro-2H-pyran-4-yl)methyl)-4,5-dihydropyrazolo[1,5-a]pyrimidine-6-carboxamide] was below 1000 nM. The same measure, in the same setting: for `O=C(NC1CC1)c1c(O)n2ncc(C3=CCOCC3)c2n(CC2CCOCC2)c1=O` [Synthesis Example 35, N-Cyclopropyl-3-(3,6-dihydro-2H-pyran-4-yl)-7-hydroxy-5-oxo-4-((tetrahydro-2H-pyran-4-yl)methyl)-4,5-dihydropyrazolo[1,5-a]pyrimidine-6-carboxamide] the value was below 1000 nM; for `CCOC(=O)c1cc2n(CC(C)(C)C)c(=O)c(C(=O)NC3CC3)c(O)n2n1` [Synthesis Example 1, Ethyl 6-(cyclopropylcarbamoyl)-7-hydroxy-4-neopentyl-5-oxo-4,5-dihydropyrazolo[1,5-a]pyrimidine-2-carboxylate], below 1000 nM; for `CC1(Cn2c(=O)c(C(=O)NC3CC3)c(O)n3nc(Nc4cnccn4)cc23)CCOCC1` [Synthesis Example 28, N-Cyclopropyl-7-hydroxy-4-((4-methyltetrahydro-2H-pyran-4-yl)methyl)-5-oxo-2-(pyrazin-2-ylamino)-4,5-dihydropyrazolo[1,5-a]pyrimidine-6-carboxamide], below 1000 nM. In turn, `CC(C)Cn1c(=O)c(C(=O)NC2CC2)c(O)n2ncc(/C=C/C(=O)O)c12` [Synthesis Example 9, (E)-3-(6-(Cyclopropylcarbamoyl)-7-hydroxy-4-isobutyl-5-oxo-4,5-dihydropyrazolo[1,5-a]pyrimidin-3-yl)acrylic acid] had an IC50 on human SPR [2] below 1000 nM.

In the case of `CC(C)(C)Cn1c(=O)c(C(=O)NC2CCC2)c(O)n2nc(Br)cc12` [Synthesis Example 25, 2-Bromo-N-cyclobutyl-7-hydroxy-4-neopentyl-5-oxo-4,5-dihydropyrazolo[1,5-a]pyrimidine-6-carboxamide], on human SPR [2], the IC50 was below 1000 nM. For the molecule `CC(C)Cn1c(=O)c(C(=O)NC2CC2)c(O)n2ncc(Br)c12` [Synthesis Example 104, 3-Bromo-N-cyclopropyl-7-hydroxy-4-isobutyl-5-oxo-4,5-dihydropyrazolo[1,5-a]pyrimidine-6-carboxamide], at human SPR [2], the IC50 was below 1000 nM. On the same count and under the same terms, for `CC(C)(C)Cn1c(=O)c(C(=O)NC2CC2)c(O)n2nc(Nc3cnc(C(=O)O)cn3)cc12` [Synthesis Example 20, 5-((6-(Cyclopropylcarbamoyl)-7-hydroxy-4-neopentyl-5-oxo-4,5-dihydropyrazolo[1,5-a]pyrimidin-2-yl)amino)pyrazine-2-carboxylic acid] the value was below 1000 nM.

Take `COc1ccnc(Nc2cc3n(CC(C)(C)C)c(=O)c(C(=O)NC4CC4)c(O)n3n2)c1` [Synthesis Example 195, N-Cyclopropyl-7-hydroxy-2-((4-methoxypyridin-2-yl)amino)-4-neopentyl-5-oxo-4,5-dihydropyrazolo[1,5-a]pyrimidine-6-carboxamide]: at human SPR [2], the IC50 is below 1000 nM. Same read-out and setting: the value for `CC(C)(C)Cn1c(=O)c(C(=O)NC2CC2)c(O)n2nc(NC(=O)OC(C)(C)C)cc12` [Synthesis Example 3, Tert-butyl (6-(cyclopropylcarbamoyl)-7-hydroxy-4-neopentyl-5-oxo-4,5-dihydropyrazolo[1,5-a]pyrimidin-2-yl)carbamate] was below 1000 nM; that for `CC(C)(C)Cn1c(=O)c(C(=O)NC2CC2)c(O)n2nc(C(=O)O)cc12` [Synthesis Example 2, 6-(Cyclopropylcarbamoyl)-7-hydroxy-4-neopentyl-5-oxo-4,5-dihydropyrazolo[1,5-a]pyrimidine-2-carboxylic acid] was below 1000 nM.

As to `CC(C)Cn1c(=O)c(C(=O)NC2CC2)c(O)n2nc(Br)cc12` [Synthesis Example 22, 2-Bromo-N-cyclopropyl-7-hydroxy-4-isobutyl-5-oxo-4,5-dihydropyrazolo[1,5-a]pyrimidine-6-carboxamide], the IC50 against human SPR [2] is below 1000 nM.

For the molecule `CC(C)(C)Cn1c(=O)c(C(=O)NC2CC2)c(O)n2nc(C(=O)Nc3ccccn3)cc12` [Synthesis Example 41, N6-Cyclopropyl-7-hydroxy-4-neopentyl-5-oxo-N2-(pyridin-2-yl)-4,5-dihydropyrazolo[1,5-a]pyrimidine-2,6-dicarboxamide], the IC50 at human SPR [2] was below 1000 nM. Still for that read-out and setting: for `COC(=O)c1cnc(Nc2cc3n(CC(C)(C)C)c(=O)c(C(=O)NC4CC4)c(O)n3n2)cn1` [Synthesis Example 19, Methyl 5-((6-(cyclopropylcarbamoyl)-7-hydroxy-4-neopentyl-5-oxo-4,5-dihydropyrazolo[1,5-a]pyrimidin-2-yl)amino)pyrazine-2-carboxylate] the value was below 1000 nM. At human SPR [2], `CCOC(=O)c1cnn2c(O)c(C(=O)NC3CC3)c(=O)n(CC(C)C)c12` [Synthesis Example 5, Ethyl 6-(cyclopropylcarbamoyl)-7-hydroxy-4-isobutyl-5-oxo-4,5-dihydropyrazolo[1,5-a]pyrimidine-3-carboxylate] showed an IC50 below 1000 nM. On the same count and under the same terms, the value for `CC1(Cn2c(=O)c(C(=O)NC3CC3)c(O)n3nc(-c4cccnc4N)cc23)CCOCC1` [Synthesis Example 29, 2-(2-Aminopyridin-3-yl)-N-cyclopropyl-7-hydroxy-4-((4-methyltetrahydro-2H-pyran-4-yl)methyl)-5-oxo-4,5-dihydropyrazolo[1,5-a]pyrimidine-6-carboxamide] was below 1000 nM; that for `CC1(Cn2c(=O)c(C(=O)NC3CCC3)c(O)n3nc(Nc4cnccn4)cc23)CCOCC1` [Synthesis Example 31, N-Cyclobutyl-7-hydroxy-4-((4-methyltetrahydro-2H-pyran-4-yl)methyl)-5-oxo-2-(pyrazin-2-ylamino)-4,5-dihydropyrazolo[1,5-a]pyrimidine-6-carboxamide] was below 1000 nM.

In the case of `CC1(Cn2c(=O)c(C(=O)NC3CCC3)c(O)n3nc(Br)cc23)CCOCC1` [Synthesis Example 30, 2-Bromo-N-cyclobutyl-7-hydroxy-4-((4-methyltetrahydro-2H-pyran-4-yl)methyl)-5-oxo-4,5-dihydropyrazolo[1,5-a]pyrimidine-6-carboxamide], the IC50 at human SPR [2] is below 1000 nM. On the same count and under the same terms, the value for `CC(C)(C)Cn1c(=O)c(C(=O)NC2CCC2)c(O)n2nc(Nc3cnccn3)cc12` [Synthesis Example 26, N-Cyclobutyl-7-hydroxy-4-neopentyl-5-oxo-2-(pyrazin-2-ylamino)-4,5-dihydropyrazolo[1,5-a]pyrimidine-6-carboxamide] was below 1000 nM.
